Like-named read-outs stand apart in the source and are kept apart here.
Experiments:
[1] = target: benzodiazepine receptor; assay: Competitive inhibition of 3H-flunitrazepam binding to benzodiazepine receptor (cerebral cortical membranes); parameters: species or system bovine
Procedure: (Competitive inhibition of H^3 -flunitrazepam to benzodiazepine receptor)
Binding of 3H-flunitrazepam (0.7 nM) to the benzodiazepine receptor was carried out in extensively washed cerebral cortical membranes.
H^3 -flunitrazepam has a Ki of […] to the benzodiazepine receptor.
IC50 values were obtained using flavonoids at different concentrations (10^-10 to 10^-3 M).
Structure - activity relationships of several flavonoids on
the ^3 H Flunitrazepam binding to bovine brain membranes.

[2] = system: mice; assay: Locomotor activity test (OPTO-VARIMEX)
Procedure: Male CF1 mice from our breeding stock weighing 28-35 g were used. The animals were placed in groups of 10-12 with free access to water and food, and maintained on a 12 h/12 h day-night cycle.
Diazepam (DZ; Hoffman-La Roche) and the flavonoids were dissolved in DMSO 40%, NaOH 0.1N (7:3: v/v) at pH 8.2 Control animals were injected with the same vehicle (VEH). RO 15-1788 (Hoffmann-La Roche) was suspended in DMSO 10%, propyleneglycol 10% in distilled water.
(c) Locomotor Activity Test: we used an OPTO-VARIMEX apparatus consisting of a glass box (36×15×20 cm) and two lateral bars with 15 light beams (0.32 cm diameter, beam spacing 2.65 cm). The apparatus detects automatically all the mouse movements, and discriminates between total and ambulatory activity. The locomotor activity (number of movements across the beams) was counted during 5 min. An increase in the number of transitions through the beams reflects an augmented locomotor activity.
The general procedure for all the tests is as follows: mice were injected with vehicle or the drug solution 20 min before the beginning of the test and put into another home cage. Ro 15-1788, a specific BZD receptor antagonist was injected 10 min before the tested drug. All the injections were given intraperitoneally (i.p.). Control mice were tested in each session, in parallel with those animals receiving the test drug or diazepam. Testing was carried out `blind`. All data were submitted to analysis of variance (ANOVA). Post-hoc comparisons between individual treatments and controls were made using Dunnett's t-test.
FIGS. 15, 16, 17 and 18 show ambulatory locomoter activity counts during a 5 min. test session in an OPTO-Varimex apparatus, 20 min. after i.p. injection with a mixture of brominated flavones (0.6,1,3 mg/kg), FIG. 15; 2' chlorinated chrysin (1,3 mg/kg); FIG. 16; 2' fluorinated chrysin (3 mg/kg), FIG. 17; 6,8 dibromoflavone, FIG. 18. Data are expressed as medians (interquartile range) of (n) number of animals.

[3] = system: mice; assay: Elevated plus maze (anxiety); format: in vivo, mice (male CF1); settings: for Percentage of entries in the open arms / Percentage of the time spent on the open arms / Total arm entries: 20 min after injection; for Total arm entries: 5 min test, mean ± S.E.M.
Procedure: (a) Elevated Plus Maze: consisted of 4 perpendicularly disposed wood arms (20×5 cm; two had 35 cm high wood walls, and two were open) linked by a central 10×10 cm square. The maze was suspended 50 cm from the room floor. Animals were placed on the central part of the maze facing a closed arm. This test has been widely validated to measure anxiety in rodents. The number of entries into and the time spent in the open and closed arms were counted during 5 min. […] Total exploratory activity (number of entries in both arms) was also determined.
(§1) All the injections were given intraperitoneally (i.p.). […] Testing was carried out `blind`. All data were submitted to analysis of variance (ANOVA).

[4] = system: mice; assay: PTZ induced seizures in mice (anticonvulsant activity); format: in vivo
Procedure: (Induced seizures in mice)
Benzodiazepines in general show an anxiolytic effect, a sedative effect and an anticonvulsant effect. In order to assess the present compounds for anticonvulsant activity the following experiment was carried out.
The method of Medina et al Biochem.Pharm. 40 p2227-2231, (1990) was followed (with the exception that injections were carried out intraperitoneally) and the mice observed for seizures.
EFFECTS OF IP ADMINISTRATION OF APIGENIN ON PTZ
INDUCED SEIZURES IN MICE.
The convulsant doses of pentylenetetrazole are between 50-80 mg/kg in different experiments carried out in 6 independent days.

[5] = system: mice; assay: Horizontal wire test (muscle relaxation); format: in vivo, mice (male CF1)
Procedure: (d) Horizontal Wire Test: It consisted of an horizontally strung wire (1 mm diameter, 15 cm long), placed at 20 cm from the table. Mice were lifted by the tail, allowed to grasp the wire with their forepaws and released. […] After two trials, performed at 5 min. intervals, the test took place. A myorelaxant drug, like diazepam at high doses, will impair the ability of mice to grasp the wire. Generally, this state of muscle relaxation is commonly associated with sedation.
as §1
The test took place after two trials, executed after a 5 min interval.

[6] = system: mice; assay: Holeboard test (exploratory activity, sedation); format: in vivo, mice (male CF1)
Procedure: (b) Holeboard Test: consisted of a wood box (60×60×30 cm) with four 2 cm diameter holes equidistant in the floor. The number of head-dips and the time spent head-dipping were counted during 5 min. An increase in the number and the time spent head-dipping implies a greater exploratory activity.
as §1

[7] = system: locus coeruleus noradrenaline; assay: Noradrenaline levels in locus coeruleus after immobilization stress; format: in vivo, rats; settings: 1 mg/kg i.p., 30 min before 90-min stress session
Procedure: Rats were submitted to a 90-minute immobilization stress session in a plastic cylinder. The locus coeruleus was dissected out after killing by decapitation and noradrenaline assessed by HPLC with electrochemical detection. Doses were 1 mg/kg for each substance, injected i.p., 30 minutes before the stress session.

[8] = bovine brain membranes, 0.7 nM 3H-flunitrazepam, read-out: 3H Flunitrazepam binding IC50
[9] = 3H-flunitrazepam 0.7 nM, read-out: IC50 at the benzodiazepine receptor

## O=c1cc(-c2ccccc2Cl)oc2cc(O)cc(O)c12 [2' chlorochrysin, 5,7-Dihydroxy-2'-chloroflavone]
[1]; [8]
  IC50: 9000 nM
[2]; 1, 3 mg/kg i.p., 20 min after injection, 5 min session
  Ambulatory locomotor activity counts vs controls: No significant difference

## COc1cc(O)c2c(=O)cc(-c3ccccc3)oc2c1 [5 hydroxy 7 methoxyflavone, 5-hydroxy-7-methoxyflavone]
[1]; [8]
  IC50: 46000 nM

## O=c1c(O[C@@H]2O[C@H](CO)[C@@H](O)[C@H](O)[C@H]2O)c(-c2ccc(O)c(O)c2)oc2cc(O)cc(O)c12 [Isoquercitrin, reference compound]
[1]; [8]
  IC50: 80000 nM

## O=c1cc(-c2ccccc2)oc2cc(Br)ccc12 [7-bromoflavone]
[1]
  Benzodiazepine ligand behaviour / affinity relative to 3H-flunitrazepam: far higher affinity for the benzodiazepine receptor
[1]; [9]
  IC50: 50 nM
[1]; [8]
  IC50: 50 nM
[2]; i.p., dose not stated
  Ambulatory locomotor activity counts vs controls: No significant change

## O=c1cc(-c2ccccc2)oc2ccccc12 [Flavone, 2-phenyl-4H-1-benzopyran-4-one]
[3]; 1 mg/kg i.p.
  Percentage of entries in the open arms: increased the percentage of entries and time spent in the open arms (p<0.002)
  Percentage of the time spent on the open arms: increased the percentage of entries and time spent in the open arms (p<0.002)
[1]
  Benzodiazepine ligand behaviour / affinity relative to 3H-flunitrazepam: benzodiazepine ligand behaviour similar to that of ^3 H-flunitrazepam
[1]; [9]
  IC50: 700 to 3000 nM
[1]; [8]
  IC50: 1000 nM

## O=c1cc(-c2ccc(O)c(-c3c(O)cc(O)c4c(=O)cc(-c5ccc(O)cc5)oc34)c2)oc2cc(O)cc(O)c12 [Amentoflavone]
[1]
  Benzodiazepine ligand behaviour / affinity relative to 3H-flunitrazepam: far higher affinity for the benzodiazepine receptor
[1]; [9]
  IC50: 10 nM
[1]; [8]
  IC50: 10 nM

## O=c1cc(-c2ccccc2F)oc2cc(O)cc(O)c12 [2' fluorochrysin, 5,7-Dihydroxy-2'-fluoroflavone]
[1]; [8]
  IC50: 8000 nM
[2]; 3 mg/kg i.p., 20 min after injection, 5 min session
  Ambulatory locomotor activity counts vs controls: No significant difference

## O=C1CC(c2ccccc2)Oc2ccccc21 (centres unmarked) [flavanone, reference compound]
[1]; [8]
  IC50: 40000 nM

## CN1C(=O)CN=C(c2ccccc2F)c2cc([N+](=O)[O-])ccc21 [H^3 -flunitrazepam, reference compound]
[1]
  Ki: 3 nM

## 6,8 dibromoflavone
[2]; i.p., dose not stated
  Ambulatory locomotor activity counts vs controls: No significant difference

## C[C@@H]1O[C@@H](OC[C@H]2O[C@@H](Oc3c(-c4ccc(O)c(O)c4)oc4cc(O)cc(O)c4c3=O)[C@H](O)[C@@H](O)[C@@H]2O)[C@H](O)[C@H](O)[C@H]1O [Rutin, reference compound]
[1]; [8]
  IC50: 60000 nM

## O=c1c(O[C@@H]2O[C@H](CO)[C@@H](O)[C@H](O)[C@H]2O)c(-c2ccc(O)c(O)c2)oc2cc(O)cc(O)c12 [Isoquercetin, reference compound]
[1]; [8]
  IC50: 10000 nM

## COc1ccc(-c2cc(=O)c3c(O)cc(O)c(-c4cc(-c5cc(=O)c6c(O)cc(O)cc6o5)ccc4OC)c3o2)cc1 [Isoginkgetin]
[1]; [8]
  IC50: 4000 to 5000 nM

## CN1C(=O)CN=C(c2ccccc2)c2cc(Cl)ccc21 [Diazepam, reference compound]
[3]; 0.3 mg/kg i.p.
  Total arm entries: 10.5 ± 0.8
[3]; 0.6 mg/kg i.p.
  Total arm entries: 12.4 ± 1.9
[3]; 0.3 and 0.6 mg/kg i.p.
  Percentage of entries in the open arms: increased the percentage of entries in the open arms (p<0.01)
  Percentage of the time spent on the open arms: the percentage of the time spent on the open arms (p<0.01)
[3]; i.p.
  Anxiolytic effect in the elevated plus maze: displayed an anxiolytic effect
[3]; i.p., doses of Table I
  Total arm entries, difference from controls: No differences were observed
[4]; 3 mg/kg i.p. + PTZ
  Number of animals with clonic convulsions: 0/6
[5]; 6 mg/kg i.p.
  Percentage of animals grasping the horizontal wire: significantly decreased
[2]; 0.3-3 mg/kg i.p., 20 min after injection
  Locomotor activity: increasing locomotor activity
[6]; 0.3 mg/kg i.p.
  Number of head-dips: increased the number of head-dips (p<0.05)
[6]; 1 mg/kg i.p.
  Time spent head-dipping: increased the time spent head-dipping(p<0.01)
[6]; 6 mg/kg i.p.
  Number of head-dips: decrease in both the number of head-dips and in the time spent head-dipping (p<0.01)
  Sedation: indicates sedation
  Time spent head-dipping: decrease in both the number of head-dips and in the time spent head-dipping (p<0.01)

## O=c1cc(-c2ccc(O)cc2)oc2cc(O)cc(O)c12 [Apigenin, 4', 5,7-trihydroxyflavone]
[3]; i.p.
  Anxiolytic effect in the elevated plus maze: shows anxiolytic effects
[7]
  Noradrenaline decrease in locus coeruleus provoked by immobilization stress: blocked almost completely the noradrenaline decrease
  Potency vs diazepam on stress-provoked noradrenaline decrease: most potent effect
[7]; listed as apigenin
  Noradrenaline decrease in locus coeruleus provoked by immobilization stress: dampened the noradrenaline decrease
[4]; 3 mg/kg i.p. + PTZ
  Number of animals with clonic convulsions: 8/8
[4]; 20 mg/kg i.p. + PTZ
  Number of animals with clonic convulsions: 3/3
[4]; 40 mg/kg i.p. + PTZ
  Number of animals with clonic convulsions: 12/14
[4]; 80 mg/kg i.p. + PTZ
  Number of animals with clonic convulsions: 11/11
[4]; i.p., PTZ induced seizures
  Anticonvulsant activity: no anticonvulsant activity
[1]
  Benzodiazepine ligand behaviour / affinity relative to 3H-flunitrazepam: benzodiazepine ligand behaviour similar to that of ^3 H-flunitrazepam
[1]; [9]
  IC50: 700 to 3000 nM
[1]; [8]
  IC50: 3000 nM
[5]; 3 and 10 mg/kg i.p.
  Effect in the horizontal wire test: did not induce any effect
[6]; 3 and 10 mg/kg i.p.
  Effect in the holeboard test: did not induce any effect

## COc1cc(O)c2c(=O)cc(-c3ccc(OC)c(-c4c(O)cc(O)c5c(=O)cc(-c6ccc(O)cc6)oc45)c3)oc2c1 [Ginkgetin]
[1]; [8]
  IC50: 5000 nM

## O=c1cc(-c2ccccc2)oc2c(Br)c(O)c(Br)c(O)c12 [6,8 dibromochrysin, 6,8-Dibromo-5,7-dihydroxyflavone]
[1]
  Benzodiazepine ligand behaviour / affinity relative to 3H-flunitrazepam: benzodiazepine ligand behaviour similar to that of ^3 H-flunitrazepam
[1]; [9]
  IC50: 700 to 3000 nM
[1]; [8]
  IC50: 700 nM

From patent US5756538A, “Flavonoid and biflavonoid derivatives, their pharmaceutical compositions, their anxiolytic activity” (University of Strathclyde, priority 1993, dated 1998)
